# Source: patent publication US20220409629A1, “BENZODIAZEPINE DERIVATIVES FOR TREATING A RESPIRATORY SYNCYTIAL VIRUS (RSV) INFECTION” (priority 2019, published 2022)
# What was measured:
# Cell cytotoxicity CC50 = type: cell-based; conditions: human; mean of at least two experiments
# [1] = Liver microsomal stability, dog; type: in vitro ADME; conditions: pH 7.4; dog liver microsomes, 0.5 mg/mL protein, 1 μM compound, NADPH; >80% remaining at 45 min denoted >140; read-out: Liver Microsomal Stability: t1/2 (min); dog
# Method in brief: (§1)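 Pooled liver microsomes (0.5 mg/mL protein) in 0.1 M phosphate pH 7.4 with 1 μM compound (0.25% DMSO), started with 1 mM NADPH at 37° C; sampled 0-45 min, minus-NADPH control 45 min. LC-MS/MS depletion slope gave t1/2 and CLint.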
# [2] = Liver microsomal stability, human; type: in vitro ADME; conditions: pH 7.4; human liver microsomes, 0.5 mg/mL protein, 1 μM compound, NADPH; >80% remaining at 45 min denoted >140; read-out: Liver Microsomal Stability: t1/2 (min); human
# Method in brief: as §1
# [3] = Liver hepatocyte stability, human; type: in vitro ADME; conditions: human hepatocytes, 3 μM compound, 60 min, >80% remaining at 60 min denoted >186, read-out: Liver Hepatocyte Stability: t1/2 (min)
# Description: Cryopreserved pooled hepatocytes were purchased from a reputable commercial supplier and stored in liquid nitrogen prior to use. Williams E media supplemented with 2 mM L-glutamine and 25 mM HEPES and test compound (final substrate concentration 3 μM; final DMSO concentration 0.25%) are pre-incubated at 37° C. prior to the addition of a suspension of cryopreserved hepatocytes (final cell density 0.5×10^6 viable cells/mL in Williams E media supplemented with 2 mM L-glutamine and 25 mM HEPES) to initiate the reaction. The final incubation volume is 500 μL. Two control compounds were included with each species, alongside appropriate vehicle control. The reactions are stopped by transferring 50 μL of incubate to 100 μL acetonitrile containing internal standard at the appropriate time points. Samples were removed at 6 time points (0, 5, 15, 30, 45 and 60 min) over the course of a 60 min experiment. The termination plates are centrifuged at 2500 rpm at 4° C. for 30 min to precipitate the protein. Following protein precipitation, the sample supernatants were combined in cassettes of up to 4 compounds and analysed using generic LC-MS/MS conditions. From a plot of ln peak area ratio (compound peak area/internal standard peak area) against time, the gradient of the line is determined. Subsequently, half-life (t1/2) and intrinsic clearance (CLint) were calculated.
# [4] = Rat pharmacokinetics in vivo; conditions: male Sprague Dawley rats; for AUC(0-t): read-out: PO AUClast
# Description: The pharmacokinetics of compounds were studied in vivo in rats at doses of 1 mg/kg (IV) and 10 mg/kg (PO).
# Male rats (Sprague Dawley) surgically prepared with a jugular vein cannula were treated with experimental compounds via intravenous administration (IV; n=3; 1 mg/kg) or oral administration (PO; n=3; 10 mg/kg). Compounds were formulated as a solution in 40:60 dimethylacetamide:saline (IV administration), a suspension in 1% methyl cellulose (viscosity: 15 cP), 0.1% Tween80 in water (PO administration: Example 3), a solution in 10% DMSO/10% Cremaphor/80% water (PO administration: Examples 4, 11, 21, 23, 25, 26, 32) or a solution in 10% DMSO/20% Cremaphor/70% water (PO administration: Examples 19, 20, 22, 24, 30). […] Serial blood samples were collected via the cannula at 0.02, 0.08, 0.25, 0.5, 1, 2, 4, 6, 8 and 24 h post IV dosing of compound, and at 0.08, 0.25, 0.5, 1, 2, 4, 6, 8 and 24 h post oral dosing of compound, and plasma was prepared by centrifugation and stored immediately at −80° C. Samples were subsequently thawed, prepared for analysis by protein precipitation with acetonitrile, and analysed by tandem LCMS using electrospray ionisation using a matrix-matched calibration curve. PK parameters were calculated from the resulting data.
# [5] = rat, in vivo, IV 1 mg/kg, PO 10 mg/kg
# [6] = rat, in vivo, IV 1 mg/kg, read-out: IV t½ (converted)
# [7] = rat, in vivo, PO 10 mg/kg, read-out: PO t½ (converted)
# [8] = rat, in vivo, doses 1 mg/kg (IV) and 10 mg/kg (PO)
# [9] = 8 h, doses 1 mg/kg (IV) and 10 mg/kg (PO)
SMILES,CC50 at 2 days (Cell cytotoxicity CC50),half-life at 1 µM [1],half-life at 1 µM [2],half-life at 3 µM [3],"concentration at 8 h ([4]; rat, in vivo, 8 h, doses 1 mg/kg (IV) and 10 mg/kg (PO), read-out: C 8 h)","Vd ([4]; rat, in vivo, IV 1 mg/kg)","clearance ([4]; rat, in vivo, IV 1 mg/kg)","bioavailability [4, 5]","half-life [4, 6]","AUC(0-t) ([4]; rat, in vivo, PO 10 mg/kg)","half-life [4, 7]","Cmax [4, 8]",CC50 (Cell cytotoxicity CC50),half-life [1],half-life [2],half-life [3],"C 8 h [4, 9]"
"CCn1ncc(C(=O)N[C@H]2N=C(c3ccccc3)c3ccccc3NC2=O)c1-c1ccc(NC(C)C)nc1F [Example 3, 1-Ethyl-5-[2-fluoro-6-(propan-2-ylamino)pyridin-3-yl]-N-[(3S)-2-oxo-5-phenyl-1,3-dihydro-1,4-benzodiazepin-3-yl]pyrazole-4-carboxamide]",> 25 µM,45.3 min,287 min,52.6 min,108 ng/mL,2.4 L/kg,13.3 mL/min/kg,17.1%,2.2 h,2070 ng·h/mL,4.6 h,199 ng/mL,–,–,–,–,–
"CCn1ncc(C(=O)N[C@H]2N=C(c3ccccc3)c3ccccc3NC2=O)c1-c1ccc(NC2CC2)nc1F [Example 4, 1-Ethyl-5-[2-fluoro-6-(cyclopropylamino)pyridin-3-yl]-N-[(3S)-2-oxo-5-phenyl-1,3-dihydro-1,4-benzodiazepin-3-yl]pyrazole-4-carboxamide]",–,–,–,–,–,2 L/kg,22.7 mL/min/kg,124%,1.3 h,9020 ng·h/mL,2.2 h,1340 ng/mL,> 25 µM,14.4 min,52 min,53.5 min,470 ng/mL
"O=C(N[C@H]1N=C(c2ccccc2)c2cccc(F)c2NC1=O)c1cnn(C2CCOCC2)c1-c1ccc(NC2CC2)nc1F [Example 21, 5-[6-(Cyclopropylamino)-2-fluoropyridin-3-yl]-N-[(3S)-9-fluoro-2-oxo-5-phenyl-1,3-dihydro-1,4-benzodiazepin-3-yl]-1-(oxan-4-yl)pyrazole-4-carboxamide]",–,–,–,–,–,2.1 L/kg,18.6 mL/min/kg,98.2%,1.7 h,8180 ng·h/mL,3.2 h,1590 ng/mL,> 25 µM,124 min,170 min,> 186 min,385 ng/mL
"CC(C)Nc1ccc(-c2c(C(=O)N[C@H]3N=C(c4ccccc4)c4cccc(F)c4NC3=O)cnn2C2CCOCC2)c(F)n1 [Example 22, N-[(3S)-9-fluoro-2-oxo-5-phenyl-1,3-dihydro-1,4-benzodiazepin-3-yl]-5-[2-fluoro-6-(propan-2-ylamino)pyridin-3-yl]-1-(oxan-4-yl)pyrazole-4-carboxamide]",–,–,–,–,–,1.9 L/kg,10 mL/min/kg,88.3%,2.4 h,14900 ng·h/mL,2.6 h,1440 ng/mL,> 25 µM,88.6 min,287 min,207 min,734 ng/mL
"CCNc1ccc(-c2c(C(=O)N[C@H]3N=C(c4ccccc4)c4cccc(F)c4NC3=O)cnn2C2CCOCC2)c(F)n1 [Example 24, 5-[6-(Ethylamino)-2-fluoropyridin-3-yl]-N-[(3S)-9-fluoro-2-oxo-5-phenyl-1,3-dihydro-1,4-benzodiazepin-3-yl]-1-(oxan-4-yl)pyrazole-4-carboxamide]",–,–,–,–,–,1.4 L/kg,15 mL/min/kg,50%,1.3 h,5540 ng·h/mL,3.4 h,791 ng/mL,> 25 µM,198 min,> 140 min,162 min,182 ng/mL
